Converted amounts (≈) assume the structure as drawn. Read-outs that look alike come from different tables or passages of the source.
What was measured:
E. coli CSH(RE45) = experiment: microbe, parasite or virus in culture; type: cell-based; conditions: Escherichia coli, 16 h, read-out: Minimum Inhibitory Concentration (MIC), *E. coli CSH(RE45), lactamase-producing strain; 10^6 CFU/ml
Experimental: (§1) The in vitro antibacterial activities of the compounds of the present invention against various microorganisms, were measured by the following agar plate dilution method. One platinum loopfull of each test microorganism incubated overnight in Mueller Hinton broth, was inoculated to Mueller Hinton agar (inoculum size: 10^6 CFU/ml). Such culture media containing various antibiotics in various concentrations were prepared. After incubation at 37° C. for 16 hours, the minimum inhibitory concentrations (MIC: μg/ml) were measured.

E. coli CSH2 (RK1) = experiment: microbe, parasite or virus in culture; type: cell-based; conditions: Escherichia coli, 16 h, read-out: Minimum Inhibitory Concentration (MIC), *E. coli CSH2 (RK1), lactamase-producing strain; 10^6 CFU/ml
Experimental: as §1

E. cloacae 963 = experiment: in vitro antibacterial activity, agar plate dilution method (MIC); type: cell-based; conditions: 10^6 CFU/ml
Experimental: as §1

E. cloacae Nek 39 = experiment: as above; type: cell-based; conditions: Enterobacter cloacae, NEK39, 16 h, 10^6 CFU/ml
Experimental: as §1

E. coli GN5482 = experiment: as above; type: cell-based; conditions: Escherichia coli, GN5482, 16 h
Experimental: as §1

E. coli NIHJ JC2 = experiment: as above; type: cell-based; conditions: Escherichia coli, NIHJJC2, 16 h, read-out: Minimum Inhibitory Concentration (MIC), E. coli NIHJ JC2, 10^6 CFU/ml, 37° C.
Experimental: as §1

K. oxytoca GN10650 = experiment: as above; type: cell-based; conditions: Klebsiella oxytoca, 10^6 CFU/ml
Experimental: as §1

K. pneumoniae No. 42 = experiment: as above; type: cell-based; conditions: Klebsiella pneumoniae, NO.42, 16 h, read-out: Minimum Inhibitory Concentration (MIC), *K. pneumoniae No. 42, lactamase-producing strain; 10^6 CFU/ml
Experimental: as §1

K. pneumoniae PCI-602 = experiment: as above; type: cell-based; conditions: Klebsiella pneumoniae, PCI602, 16 h, 10^6 CFU/ml
Experimental: as §1

M. morganii GN5407 = experiment: as above; type: cell-based; conditions: Morganella morganii, GN5407, 16 h, read-out: Minimum Inhibitory Concentration (MIC), *M. morganii GN5407, lactamase-producing strain; 10^6 CFU/ml
Experimental: as §1

P. vulgaris HX-19 = experiment: as above; type: cell-based; conditions: Proteus vulgaris, HX19, 16 h, read-out: Minimum Inhibitory Concentration (MIC)
Experimental: as §1

P. vulgaris No. 33 = experiment: as above; type: cell-based; conditions: Proteus vulgaris, NO.33, 16 h, read-out: Minimum Inhibitory Concentration (MIC), *P. vulgaris No. 33, lactamase-producing strain; 10^6 CFU/ml
Experimental: as §1

S. aureus 209P NIHJ-JC1 = experiment: as above; type: cell-based; conditions: Staphylococcus aureus, 16 h
Experimental: as §1

S. marcescens IAM 1184 = experiment: as above; type: cell-based; conditions: Serratia marcescens, IAM1184, 16 h, read-out: Minimum Inhibitory Concentration (MIC)
Experimental: as §1

S. marcescens No. 16-2 = experiment: as above; type: cell-based; conditions: Serratia marcescens, NO.162, 16 h
Experimental: as §1

Ps. aeruginosa AK 109 = experiment: as above; type: cell-based, Pseudomonas aeruginosa; conditions: Pseudomonas aeruginosa, AK109, 16 h
Experimental: as §1

Ps. aeruginosa AKR17 = experiment: as above; type: cell-based, Pseudomonas aeruginosa; conditions: Pseudomonas aeruginosa, 10^6 CFU/ml
Experimental: as §1

Ps. aeruginosa IF03445 = experiment: as above; type: cell-based, Pseudomonas aeruginosa; conditions: Pseudomonas aeruginosa, 10^6 CFU/ml
Experimental: as §1

A. calcoaceticus No. 4 = experiment: as above; type: cell-based, Acinetobacter calcoaceticus; conditions: Acinetobacter calcoaceticus, NO.4, 16 h, 10^6 CFU/ml
Experimental: as §1

Ps. cepacia 23 = experiment: as above; type: cell-based, Pseudomonas cepacia; conditions: Burkholderia cepacia, 16 h; Ps. cepacia 23; 10^6 CFU/ml; read-out: Minimum Inhibitory Concentration (MIC)
Experimental: as §1

[1] = Enterobacter cloacae, 963, 16 h, read-out: Minimum Inhibitory Concentration (MIC), E. cloacae 963
[2] = read-out: Minimum Inhibitory Concentration (MIC)
[3] = GN10650, 16 h, read-out: Minimum Inhibitory Concentration (MIC), *K. oxytoca GN10650, lactamase-producing strain
[4] = read-out: Minimum Inhibitory Concentration (MIC), K. pneumoniae PCI-602
[5] = read-out: Minimum Inhibitory Concentration (MIC), S. aureus 209P NIHJ-JC1, 10^6 CFU/ml, 37° C., 16 hours
[6] = Ps. aeruginosa AK 109, 10^6 CFU/ml, read-out: Minimum Inhibitory Concentration (MIC)
[7] = 16 h, Ps. aeruginosa AKR17, read-out: Minimum Inhibitory Concentration (MIC)
[8] = 16 h, Ps. aeruginosa IF03445, read-out: Minimum Inhibitory Concentration (MIC)
[9] = A. calcoaceticus No. 4, read-out: Minimum Inhibitory Concentration (MIC)
[10] = Enterobacter cloacae, 16 h, E. cloacae 963, read-out: Minimum Inhibitory Concentration (MIC)
[11] = read-out: Minimum Inhibitory Concentration (MIC), *E. cloacae Nek 39, lactamase-producing strain
[12] = S. marcescens IAM 1184, 10^6 CFU/ml
[13] = read-out: Minimum Inhibitory Concentration (MIC), A. calcoaceticus No. 4
[14] = read-out: Minimum Inhibitory Concentration (MIC), *E. coli GN5482, lactamase-producing strain, 10^6 CFU/ml
[15] = read-out: Minimum Inhibitory Concentration (MIC), *S. marcescens No. 16-2, lactamase-producing strain, 10^6 CFU/ml
[16] = read-out: Minimum Inhibitory Concentration (MIC), Ps. aeruginosa AK 109, 10^6 CFU/ml
[17] = IF03445, 16 h, read-out: Minimum Inhibitory Concentration (MIC), Ps. aeruginosa IF03445
[18] = 16 h, *K. oxytoca GN10650, lactamase-producing strain, read-out: Minimum Inhibitory Concentration (MIC)

Row | SMILES | MIC (E. coli CSH(RE45)) | MIC (E. coli CSH2 (RK1)) | MIC (E. coli GN5482; [2]) | MIC (E. coli NIHJ JC2) | MIC (K. oxytoca GN10650; [3]) | MIC (K. pneumoniae No. 42) | MIC (K. pneumoniae PCI-602; [4]) | MIC (P. vulgaris HX-19; P. vulgaris HX-19, 10^6 CFU/ml) | MIC (P. vulgaris No. 33) | MIC (Ps. aeruginosa AKR17; [7]) | MIC (A. calcoaceticus No. 4; [9]) | MIC (E. cloacae 963; [10]) | MIC (E. cloacae Nek 39; [11]) | MIC (S. aureus 209P NIHJ-JC1; [2]) | MIC (S. marcescens IAM 1184; [12]) | MIC (Ps. cepacia 23) | MIC (A. calcoaceticus No. 4; [13]) | MIC (S. marcescens No. 16-2; [15]) | MIC (Ps. aeruginosa AK 109; [16]) | MIC (Ps. aeruginosa IF03445; [17]) | also measured
1 | CC(C)(O/N=C(\C(=O)N[C@@H]1C(=O)N2C(C(=O)O)=C(CSc3nnc(-c4ccccc4)o3)CS[C@H]12)c1csc(N)n1)C(=O)O [compound 3, disodium 7β-[2-(2-aminothiazol-4-yl)-2-(1-carboxylate-1-methylethoxyimino)acetamido]3-(5-phenyl-1,3,4-oxadiazol-2-yl) thiomethyl-3-cephem-4-carboxylate, reference compound] | 1.56 µg/mL | 1.56 µg/mL | 3.12 µg/mL | 3.12 µg/mL | 3.12 µg/mL | 3.12 µg/mL | 0.1 µg/mL | < 0.006 µg/mL | 0.39 µg/mL | > 100 µg/mL | 100 µg/mL | – | – | – | – | – | – | – | – | – | MIC (E. cloacae 963; [1]): 6.25 µg/mL; MIC (E. cloacae Nek 39; *E. cloacae Nek 39, lactamase-producing strain, read-out: Minimum Inhibitory Concentration (MIC)): 25 µg/mL; MIC (M. morganii GN5407): 1.56 µg/mL; MIC (S. aureus 209P NIHJ-JC1; [5]): 6.25 µg/mL; MIC (S. marcescens IAM 1184): 1.56 µg/mL; MIC (S. marcescens No. 16-2; *S. marcescens No. 16-2, lactamase-producing strain, 10^6 CFU/ml, read-out: Minimum Inhibitory Concentration (MIC)): 25 µg/mL; MIC (Ps. aeruginosa AK 109; [6]): 50 µg/mL; MIC (Ps. aeruginosa IF03445; [8]): 50 µg/mL
2 | CON=C(C(=O)NC1C(=O)N2C(C(=O)O)=C(CSc3nc(-c4ccc(O)c(O)c4)c(CC(=O)O)s3)CSC12)c1csc(N)n1 (stereo not drawn) [compound 58, disodium 7β-[2-(2-aminothiazol-4-yl)-2-methoxyiminoacetamido]-3-[4-(3,4-dihydroxyphenyl)-5-carboxylatemethylthiazol-2-yl]thiomethyl-3-cephem-4-carboxylate] | 0.39 µg/mL | 0.0125 µg/mL | 3.12 µg/mL | 0.39 µg/mL | 12.5 µg/mL | 0.1 µg/mL | < 0.006 µg/mL | – | 0.025 µg/mL | > 100 µg/mL | – | 0.1 µg/mL | 1.56 µg/mL | 12.5 µg/mL | 0.1 µg/mL | 0.025 µg/mL | 0.39 µg/mL | – | – | – | MIC (P. vulgaris HX-19): 0.0125 µg/mL; MIC (S. marcescens No. 16-2; [2]): 3.12 µg/mL; MIC (Ps. aeruginosa AK 109; [6]): > 100 µg/mL; MIC (Ps. aeruginosa IF03445; [8]): 25 µg/mL
3 | CC(=O)Oc1ccc(-c2nc(SCC3=C(C(=O)O)N4C(=O)C(NC(=O)C(=NOC(C)(C)C(=O)O)c5csc(N)n5)C4SC3)sc2CC(=O)O)cc1OC(C)=O (stereo not drawn) [Example 59 (II), trisodium 7β-[2-(2-aminothiazol-4-yl)-2-(1-carboxylate-1-methylethoxyimino)acetamido]-3-[4-(3,4-diacetoxyphenyl)-5-carboxylatemethylthiazol-2-yl]-thiomethyl-3-cephem-4-carboxylate] | 0.05 µg/mL | 0.025 µg/mL | – | 3.12 µg/mL | 0.2 µg/mL | 0.2 µg/mL | – | 0.025 µg/mL | 0.05 µg/mL | – | 0.2 µg/mL | 0.2 µg/mL | 0.2 µg/mL | – | 0.2 µg/mL | < 0.006 µg/mL | – | 0.78 µg/mL | 1.56 µg/mL | 1.56 µg/mL | MIC (E. coli GN5482; [14]): 1.56 µg/mL; MIC (K. pneumoniae PCI-602; K. pneumoniae PCI-602, read-out: Minimum Inhibitory Concentration (MIC)): 0.025 µg/mL; MIC (S. aureus 209P NIHJ-JC1; S. aureus 209P NIHJ-JC1, 10^6 CFU/ml, 37° C., 16 hours, read-out: Minimum Inhibitory Concentration (MIC)): 50 µg/mL; MIC (Ps. aeruginosa AKR17; AKR17, 16 h, read-out: Minimum Inhibitory Concentration (MIC), Ps. aeruginosa AKR17): 1.56 µg/mL
4 | Nc1nc(C(=NOCc2ccccc2)C(=O)NC2C(=O)N3C(C(=O)O)=C(CSc4nc(C(=O)O)c(-c5ccc(O)c(O)c5)s4)CSC23)cs1 (stereo not drawn) [Ex. 57] | 0.1 µg/mL (≈ 0.135 µM) | 0.0125 µg/mL (≈ 0.0169 µM) | 3.12 µg/mL (≈ 4.21 µM) | 0.78 µg/mL (≈ 1.05 µM) | – | 0.1 µg/mL (≈ 0.135 µM) | < 0.006 µg/mL | < 0.006 µg/mL | 0.025 µg/mL (≈ 0.0337 µM) | > 100 µg/mL | – | – | 0.39 µg/mL (≈ 0.526 µM) | 3.12 µg/mL (≈ 4.21 µM) | 0.1 µg/mL (≈ 0.135 µM) | < 0.006 µg/mL | 0.39 µg/mL (≈ 0.526 µM) | 6.25 µg/mL (≈ 8.44 µM) | 6.25 µg/mL (≈ 8.44 µM) | 3.12 µg/mL (≈ 4.21 µM) | MIC (E. cloacae 963; [1]): 0.05 µg/mL (≈ 0.0675 µM); MIC (K. oxytoca GN10650; [18]): 25 µg/mL (≈ 33.7 µM)
5 | Nc1nc(C(=NOC2CCCC2)C(=O)NC2C(=O)N3C(C(=O)O)=C(CSc4nc(C(=O)O)c(-c5ccc(O)c(O)c5)s4)CSC23)cs1 (stereo not drawn) [Ex. 54, disodium 78-[2-(2-aminothiazol-4-yl)-2-cyclopentyloxyiminoacetamido]-3-[4-carboxylate-5-(3,4-dihydroxyphenyl)thiazol-2-yl]thiomethyl-3-cephem-4-carboxylate] | 3.12 µg/mL | 0.1 µg/mL | – | 1.56 µg/mL | 1.56 µg/mL | 0.1 µg/mL | < 0.006 µg/mL | < 0.006 µg/mL | 0.025 µg/mL | > 100 µg/mL | 0.2 µg/mL | 0.1 µg/mL | 0.2 µg/mL | 3.12 µg/mL | 0.05 µg/mL | < 0.006 µg/mL | – | 1.56 µg/mL | – | 1.56 µg/mL | MIC (E. coli GN5482; [14]): 1.56 µg/mL; MIC (Ps. aeruginosa AK 109; [2]): 12.5 µg/mL
6 | C=CCON=C(C(=O)NC1C(=O)N2C(C(=O)O)=C(CSc3nc(C(=O)O)c(-c4ccc(O)c(O)c4)s3)CSC12)c1csc(N)n1 (stereo not drawn) [Ex. 55, disodium 78-[2-allyloxyimino-2-(2-aminothiazol-4-yl)acetamido]-3-[4-carboxylate-5-(3,4-dihydroxyphenyl)thiazol-2-yl]thiomethyl-3-cephem-4-carboxylate] | 0.1 µg/mL | 0.0125 µg/mL | 3.12 µg/mL | 0.78 µg/mL | – | 0.1 µg/mL | < 0.006 µg/mL | < 0.006 µg/mL | 0.025 µg/mL | > 100 µg/mL | – | 0.1 µg/mL | 0.39 µg/mL | – | 0.1 µg/mL | 0.025 µg/mL | 0.1 µg/mL | – | 6.25 µg/mL | 3.12 µg/mL | MIC (K. oxytoca GN10650; [18]): 50 µg/mL; MIC (S. aureus 209P NIHJ-JC1; [5]): 6.25 µg/mL; MIC (S. marcescens No. 16-2; [2]): 3.12 µg/mL
